# US20230295234A1, “ANTIMICROBIAL PEPTIDOMIMETICS” (SPEXIS AG, priority 2020, published 2023)
# Bridge positions count the residues as written; N and C are the ends. Square brackets hold non-standard residues; d marks the D form. Peptide text beside a SMILES is read from it. Gly(N-2-aminoethyl) = NCCNCC(=O)O; Hyp = O=C(O)[C@@H]1C[C@@H](O)CN1; Gly(N(CH2)3NH2) = NCCCNCC(=O)O; Pen = CC(C)(S)[C@H](N)C(=O)O; dDab = NCC[C@@H](N)C(=O)O; Dab = NCC[C@H](N)C(=O)O; Nlys = NCCCCNCC(=O)O
# Experiments:
# [1] = system: Escherichia coli ATCC 25922; details: ATCC 25922
# Procedure, shortened: (§1)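 Activity is measured against peptides serially diluted two-fold in water with 0.002% final Polysorbate 80. The cells are in cation-adjusted MHII broth at roughly 5×10^5 CFU/mL, prepared from a 0.5 McFarland suspension in 0.85% NaCl.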
# [2] = system: Escherichia coli MCR-1 Af 45; details: MCR-1 Af 45
# Procedure, shortened: as §1
# [3] = system: Klebsiella pneumoniae SSI3010; details: SSI3010
# Procedure, shortened: as §1
# [4] = system: human red blood cells (hRBC); experiment: Hemolysis of human red blood cells; type: cell-based; details: red cells of human, 1 h
# Procedure, shortened: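 PBS-washed human red blood cells (20% v/v) were incubated with peptide at 200 μg/mL for 1 h at 37 °C with shaking. Supernatant OD was read at 540 nm after 8-fold dilution. Hemolysis is expressed as percent of the water control.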
Compound,Escherichia coli ATCC 25922 MIC [1],Escherichia coli MCR-1 Af 45 MIC [2],Klebsiella pneumoniae SSI3010 MIC [3],Hemolysis at 0.2 g/L [4]
"CC[C@H](C)[C@H](NC(=O)[C@@H]1C[C@@H](O)CN1C(=O)[C@@H](NC(=O)CN(CCN)C(=O)CNCCCN)C(C)C)C(=O)N[C@H](C(=O)N[C@@H](Cc1ccc(O)cc1)C(=O)N[C@@H]1C(=O)N[C@@H](CC(N)=O)C(=O)N[C@@H](CCCNC(=N)N)C(=O)N[C@@H](CCN)C(=O)N[C@@H]([C@@H](C)O)C(=O)N[C@H](CCN)C(=O)N[C@@H](CCCCN)C(=O)N[C@H](C(=O)N[C@@H](Cc2ccc(O)cc2)C(=O)N[C@@H](CCCNC(=N)N)C(=O)N[C@@H](Cc2ccc(O)cc2)C(=O)O)CSSC1(C)C)[C@@H](C)O [Example 60, Norn-Ndab-Val-Hyp-Ile-Thr-Tyr-Pen-Asn-Arg-Dab-Thr-^DDab-Lys-Cys-Tyr-Arg-Tyr] (H-[Gly(N(CH2)3NH2)][Gly(N-2-aminoethyl)]V[Hyp]ITY[Pen]NR[Dab]T[dDab]KCYRY-OH; disulfide 8-15; N-terminus assumed)",0.25 µg/mL,0.125 µg/mL,0.25 µg/mL,0%
"CC[C@H](C)[C@H](NC(=O)[C@@H]1C[C@@H](O)CN1C(=O)[C@@H](NC(=O)CN(CCN)C(=O)CNCCCCN)C(C)C)C(=O)N[C@H](C(=O)N[C@@H](Cc1ccc(O)cc1)C(=O)N[C@@H]1C(=O)N[C@@H](CC(N)=O)C(=O)N[C@@H](CCCNC(=N)N)C(=O)N[C@@H](CCN)C(=O)N[C@@H]([C@@H](C)O)C(=O)N[C@H](CCN)C(=O)N[C@@H](CCCCN)C(=O)N[C@H](C(=O)N[C@@H](Cc2ccc(O)cc2)C(=O)N[C@@H](CCCNC(=N)N)C(=O)N[C@@H](Cc2ccc(O)cc2)C(=O)O)CSSC1(C)C)[C@@H](C)O [Example 61, Nlys-Ndab-Val-Hyp-Ile-Thr-Tyr-Pen-Asn-Arg-Dab-Thr-^DDab-Lys-Cys-Tyr-Arg-Tyr] (H-[Nlys][Gly(N-2-aminoethyl)]V[Hyp]ITY[Pen]NR[Dab]T[dDab]KCYRY-OH; disulfide 8-15)",0.25 µg/mL,0.125 µg/mL,0.125 µg/mL,0%
"CC[C@H](C)[C@H](NC(=O)CN(CCN)C(=O)[C@@H](NC(=O)CN(CCN)C(=O)[C@@H](N)CCCCN)C(C)C)C(=O)N[C@H](C(=O)N[C@@H](Cc1ccc(O)cc1)C(=O)N[C@@H]1C(=O)N[C@@H](CC(N)=O)C(=O)N[C@@H](CCCNC(=N)N)C(=O)N[C@@H](CCN)C(=O)N[C@@H]([C@@H](C)O)C(=O)N[C@H](CCN)C(=O)N[C@@H](CCCCN)C(=O)N[C@H](C(=O)N[C@@H](Cc2ccc(O)cc2)C(=O)N[C@@H](CCCNC(=N)N)C(=O)N[C@@H](Cc2ccc(O)cc2)C(=O)O)CSSC1(C)C)[C@@H](C)O [Example 62, Lys-Ndab-Val-Ndab-Ile-Thr-Tyr-Pen-Asn-Arg-Dab-Thr-^DDab-Lys-Cys-Tyr-Arg-Tyr] (H-K[Gly(N-2-aminoethyl)]V[Gly(N-2-aminoethyl)]ITY[Pen]NR[Dab]T[dDab]KCYRY-OH; disulfide 8-15)",0.25 µg/mL,0.125 µg/mL,0.25 µg/mL,0%
"CC[C@H](C)[C@H](NC(=O)[C@@H]1C[C@@H](O)CN1C(=O)[C@@H](NC(=O)[C@@H]1C[C@@H](O)CN1C(=O)[C@H](CCCCN)NC(=N)N)C(C)C)C(=O)N[C@H](C(=O)N[C@@H](Cc1ccc(O)cc1)C(=O)N[C@@H]1C(=O)N[C@@H](CC(N)=O)C(=O)N[C@@H](CCCNC(=N)N)C(=O)N[C@@H](CCN)C(=O)N[C@@H]([C@@H](C)O)C(=O)N[C@H](CCN)C(=O)N[C@@H](CCCCN)C(=O)N[C@H](C(=O)N[C@@H](CCN)C(=O)N[C@@H](CCCNC(=N)N)C(=O)N[C@@H](Cc2ccc(O)cc2)C(=O)O)CSSC1(C)C)[C@@H](C)O [Example 63, Gua-Lys-Hyp-Val-Hyp-Ile-Thr-Tyr-Pen-Asn-Arg-Dab-Thr-^DDab-Lys-Cys-Dab-Arg-Tyr] (HELM PEPTIDE1{[N=C(N)N[C@@H](CCCCN)C(=O)[*:2]].[Hyp].V.[Hyp].I.T.Y.[Pen].N.R.[Dab].T.[NCC[C@@H](N[*:1])C(=O)[*:2]].K.C.[Dab].R.Y}$PEPTIDE1,PEPTIDE1,8:R3-15:R3$$$V2.0)",0.0625 µg/mL,0.0625 µg/mL,0.125 µg/mL,0%
"CCCC[C@H](NC(=O)[C@H](CCCNC(=N)N)NC(=O)[C@H](CCC(N)=O)NC(=O)[C@@H]1CSSC[C@H](NC(=O)[C@H](Cc2ccc(O)cc2)NC(=O)[C@@H](NC(=O)[C@@H](NC(=O)[C@@H]2CCCN2C(=O)[C@@H](NC(=O)[C@@H]2CCCN2C(=O)[C@H](CCCCN)NC(=O)[C@@H](N)CCCCN)C(C)C)[C@@H](C)CC)[C@@H](C)CC)C(=O)N[C@@H](CC(N)=O)C(=O)N[C@@H](CCCNC(=N)N)C(=O)N[C@@H](CCN)C(=O)N[C@@H]([C@@H](C)O)C(=O)N[C@H](CCN)C(=O)N[C@@H](CCN)C(=O)N1)C(=O)O [Example 64] (HELM PEPTIDE1{K.K.P.V.P.I.I.Y.C.N.R.[Dab].T.[NCC[C@@H](N[*:1])C(=O)[*:2]].[Dab].C.Q.R.[Nle]}$PEPTIDE1,PEPTIDE1,9:R3-16:R3$$$V2.0)",0.0625 µg/mL,0.125 µg/mL,0.25 µg/mL,0%
"CCCC[C@H](NC(=O)[C@H](CCCNC(=N)N)NC(=O)[C@H](CCCNC(=N)N)NC(=O)[C@@H]1CSSC[C@H](NC(=O)[C@H](Cc2ccc(O)cc2)NC(=O)[C@@H](NC(=O)[C@@H](NC(=O)[C@@H]2CCCN2C(=O)[C@@H](NC(=O)[C@@H]2CCCN2C(=O)[C@H](CCCCN)NC(=O)[C@@H](N)CCCCN)C(C)C)[C@@H](C)CC)[C@@H](C)CC)C(=O)N[C@@H](CC(N)=O)C(=O)N[C@@H](CCCNC(=N)N)C(=O)N[C@@H](CCN)C(=O)N[C@@H]([C@@H](C)O)C(=O)N[C@H](CCN)C(=O)N[C@@H](CCN)C(=O)N1)C(=O)O [Example 65] (HELM PEPTIDE1{K.K.P.V.P.I.I.Y.C.N.R.[Dab].T.[NCC[C@@H](N[*:1])C(=O)[*:2]].[Dab].C.R.R.[Nle]}$PEPTIDE1,PEPTIDE1,9:R3-16:R3$$$V2.0)",≤0.0625 µg/mL,0.0625 µg/mL,0.0625 µg/mL,0%
"CCCC[C@H](NC(=O)[C@H](CCCNC(=N)N)NC(=O)[C@H](CCN)NC(=O)[C@@H]1CSSC[C@H](NC(=O)[C@H](Cc2ccc(O)cc2)NC(=O)[C@@H](NC(=O)[C@@H](NC(=O)[C@@H]2CCCN2C(=O)[C@@H](NC(=O)[C@@H]2CCCN2C(=O)[C@H](CCCCN)NC(=O)[C@@H](N)CCCCN)C(C)C)[C@@H](C)CC)[C@@H](C)CC)C(=O)N[C@@H](CC(N)=O)C(=O)N[C@@H](CCCNC(=N)N)C(=O)N[C@@H](CCN)C(=O)N[C@@H]([C@@H](C)O)C(=O)N[C@H](CCN)C(=O)N[C@@H](CCCCN)C(=O)N1)C(=O)O [Example 66] (HELM PEPTIDE1{K.K.P.V.P.I.I.Y.C.N.R.[Dab].T.[NCC[C@@H](N[*:1])C(=O)[*:2]].K.C.[Dab].R.[Nle]}$PEPTIDE1,PEPTIDE1,9:R3-16:R3$$$V2.0)",0.03125 µg/mL,0.0625 µg/mL,0.125 µg/mL,0%
